Two molecules from ChEMBL document CHEMBL5678818, “Discovery of potent SOS1 inhibitors that block RAS activation via disruption of the RAS-SOS1 interaction” (Proc Natl Acad Sci U S A, 2019) can be followed below.

Structures are written as SMILES.

Assay [1] deals with Serine/threonine-protein kinase 24 (Homo sapiens) (UniProt Q9Y6E0). Description: Inhibition of MST3 (unknown origin) assessed as residual activity at 1000 nM by KINOMEscan analysis relative to control.
Assay [2] concerns the target T1, Dual specificity protein kinase TTK (Homo sapiens) (UniProt P33981).
T1 sequence (whole entry): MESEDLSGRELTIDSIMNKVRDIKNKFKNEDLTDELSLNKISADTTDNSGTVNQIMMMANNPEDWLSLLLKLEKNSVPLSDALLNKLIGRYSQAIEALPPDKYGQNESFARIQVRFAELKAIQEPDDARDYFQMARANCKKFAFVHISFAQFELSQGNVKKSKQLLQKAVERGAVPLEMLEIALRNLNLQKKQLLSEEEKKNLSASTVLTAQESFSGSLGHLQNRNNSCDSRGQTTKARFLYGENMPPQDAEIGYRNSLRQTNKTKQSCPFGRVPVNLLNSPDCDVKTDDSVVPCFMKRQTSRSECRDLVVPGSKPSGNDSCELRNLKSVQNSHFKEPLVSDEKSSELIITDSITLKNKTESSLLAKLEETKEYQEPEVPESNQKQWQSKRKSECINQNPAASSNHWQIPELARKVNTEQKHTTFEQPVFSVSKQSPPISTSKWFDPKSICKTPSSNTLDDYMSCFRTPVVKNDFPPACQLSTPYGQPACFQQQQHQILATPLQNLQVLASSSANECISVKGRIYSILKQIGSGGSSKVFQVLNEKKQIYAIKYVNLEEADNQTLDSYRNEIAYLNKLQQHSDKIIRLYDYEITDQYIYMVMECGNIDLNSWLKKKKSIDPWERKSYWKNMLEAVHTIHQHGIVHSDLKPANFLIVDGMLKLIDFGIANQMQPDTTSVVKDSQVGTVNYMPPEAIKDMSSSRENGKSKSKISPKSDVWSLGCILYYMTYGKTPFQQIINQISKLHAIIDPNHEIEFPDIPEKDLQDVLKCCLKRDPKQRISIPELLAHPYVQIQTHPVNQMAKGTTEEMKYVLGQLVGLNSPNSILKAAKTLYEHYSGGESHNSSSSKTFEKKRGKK
Description: Inhibition of TTK (unknown origin) assessed as residual activity at 1000 nM by KINOMEscan analysis relative to control.

In assay [3] the target is Receptor-type tyrosine-protein kinase FLT3 (Homo sapiens) (UniProt P36888). Description: Inhibition of FLT3 (unknown origin) assessed as residual activity at 1000 nM by KINOMEscan analysis relative to control.
Assay [4] has as its target T2, Protein kinase C iota type (Homo sapiens) (UniProt P41743).
T2 sequence (whole entry): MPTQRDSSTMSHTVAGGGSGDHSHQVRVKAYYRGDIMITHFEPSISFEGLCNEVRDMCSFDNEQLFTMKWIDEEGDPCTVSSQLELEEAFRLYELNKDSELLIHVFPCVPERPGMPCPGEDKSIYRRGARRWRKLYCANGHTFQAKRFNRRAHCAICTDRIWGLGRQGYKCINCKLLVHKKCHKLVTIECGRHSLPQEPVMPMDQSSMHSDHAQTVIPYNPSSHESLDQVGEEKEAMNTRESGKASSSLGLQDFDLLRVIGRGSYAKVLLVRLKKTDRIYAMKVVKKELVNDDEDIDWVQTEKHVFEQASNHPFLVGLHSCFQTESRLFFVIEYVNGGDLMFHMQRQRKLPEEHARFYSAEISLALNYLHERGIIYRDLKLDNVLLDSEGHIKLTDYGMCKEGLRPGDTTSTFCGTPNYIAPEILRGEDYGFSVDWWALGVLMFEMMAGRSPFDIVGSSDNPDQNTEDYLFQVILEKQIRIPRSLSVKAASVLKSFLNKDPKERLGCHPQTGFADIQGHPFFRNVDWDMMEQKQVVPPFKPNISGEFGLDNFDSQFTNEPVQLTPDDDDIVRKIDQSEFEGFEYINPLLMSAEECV
Description: Inhibition of PRKCI (unknown origin) assessed as residual activity at 1000 nM by KINOMEscan analysis relative to control.

The target of assay [5] is T3, cGMP-dependent protein kinase 2 (Homo sapiens) (UniProt Q13237).
T3 sequence (whole entry): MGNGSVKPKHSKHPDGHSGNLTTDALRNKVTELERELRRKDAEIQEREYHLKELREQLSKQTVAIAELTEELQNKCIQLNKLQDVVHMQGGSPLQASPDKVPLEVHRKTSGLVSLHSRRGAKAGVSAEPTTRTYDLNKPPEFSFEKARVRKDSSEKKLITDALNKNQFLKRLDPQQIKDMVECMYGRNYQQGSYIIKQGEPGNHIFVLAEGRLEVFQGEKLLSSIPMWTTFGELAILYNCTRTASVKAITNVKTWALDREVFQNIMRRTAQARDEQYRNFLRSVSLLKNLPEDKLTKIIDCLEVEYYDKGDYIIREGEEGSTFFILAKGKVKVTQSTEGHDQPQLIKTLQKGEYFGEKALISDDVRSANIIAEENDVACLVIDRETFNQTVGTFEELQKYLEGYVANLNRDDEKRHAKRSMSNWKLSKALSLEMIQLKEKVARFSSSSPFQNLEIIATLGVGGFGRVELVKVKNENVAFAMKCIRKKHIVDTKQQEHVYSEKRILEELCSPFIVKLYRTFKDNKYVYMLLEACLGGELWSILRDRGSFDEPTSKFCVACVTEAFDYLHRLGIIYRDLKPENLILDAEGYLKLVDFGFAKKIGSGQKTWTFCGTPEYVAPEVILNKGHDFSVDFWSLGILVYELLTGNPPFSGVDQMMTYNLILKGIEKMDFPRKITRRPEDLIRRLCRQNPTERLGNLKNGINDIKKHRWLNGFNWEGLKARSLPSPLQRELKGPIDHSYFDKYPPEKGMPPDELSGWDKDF
The assay is described as follows: Inhibition of PRKG2 (unknown origin) assessed as residual activity at 1000 nM by KINOMEscan analysis relative to control.

Assay [6] concerns the target Tyrosine-protein kinase Srms (Homo sapiens) (UniProt Q9H3Y6). Description: Inhibition of SRMS (unknown origin) assessed as residual activity at 1000 nM by KINOMEscan analysis relative to control.
Assay [7] has as its target Myosin light chain kinase, smooth muscle (Homo sapiens) (UniProt Q15746). Description: Inhibition of MLCK (unknown origin) assessed as residual activity at 1000 nM by KINOMEscan analysis relative to control.

Chain of Serine/threonine-protein kinase 24 (Homo sapiens) (Q9Y6E0 whole entry, looked up): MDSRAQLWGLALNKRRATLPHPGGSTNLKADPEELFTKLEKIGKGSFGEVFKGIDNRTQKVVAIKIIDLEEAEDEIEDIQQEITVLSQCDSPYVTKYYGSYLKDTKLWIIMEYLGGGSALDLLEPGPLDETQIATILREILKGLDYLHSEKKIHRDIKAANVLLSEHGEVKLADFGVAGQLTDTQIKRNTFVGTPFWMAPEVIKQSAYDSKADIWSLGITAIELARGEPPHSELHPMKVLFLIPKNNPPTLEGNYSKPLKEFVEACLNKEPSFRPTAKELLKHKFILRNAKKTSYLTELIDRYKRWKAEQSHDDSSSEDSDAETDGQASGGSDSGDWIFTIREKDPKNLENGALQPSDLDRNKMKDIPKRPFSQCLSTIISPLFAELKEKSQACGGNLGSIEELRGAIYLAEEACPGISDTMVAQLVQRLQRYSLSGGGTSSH
Chain of Tyrosine-protein kinase Srms (Homo sapiens) (Q9H3Y6 whole entry): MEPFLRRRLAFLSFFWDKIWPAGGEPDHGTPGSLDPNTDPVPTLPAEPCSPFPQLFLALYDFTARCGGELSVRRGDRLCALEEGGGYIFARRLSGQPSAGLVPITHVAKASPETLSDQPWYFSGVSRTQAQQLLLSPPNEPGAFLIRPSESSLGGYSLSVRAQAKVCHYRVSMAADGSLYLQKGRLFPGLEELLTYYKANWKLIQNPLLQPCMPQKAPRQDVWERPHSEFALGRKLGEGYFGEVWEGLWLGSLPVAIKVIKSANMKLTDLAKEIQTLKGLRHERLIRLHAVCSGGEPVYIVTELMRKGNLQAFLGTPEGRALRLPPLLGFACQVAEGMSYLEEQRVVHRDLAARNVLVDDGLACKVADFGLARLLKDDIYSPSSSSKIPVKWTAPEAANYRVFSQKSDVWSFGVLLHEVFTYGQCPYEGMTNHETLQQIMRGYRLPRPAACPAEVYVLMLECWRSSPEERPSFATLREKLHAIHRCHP
Chain of Myosin light chain kinase, smooth muscle (Homo sapiens) (Q15746 whole entry): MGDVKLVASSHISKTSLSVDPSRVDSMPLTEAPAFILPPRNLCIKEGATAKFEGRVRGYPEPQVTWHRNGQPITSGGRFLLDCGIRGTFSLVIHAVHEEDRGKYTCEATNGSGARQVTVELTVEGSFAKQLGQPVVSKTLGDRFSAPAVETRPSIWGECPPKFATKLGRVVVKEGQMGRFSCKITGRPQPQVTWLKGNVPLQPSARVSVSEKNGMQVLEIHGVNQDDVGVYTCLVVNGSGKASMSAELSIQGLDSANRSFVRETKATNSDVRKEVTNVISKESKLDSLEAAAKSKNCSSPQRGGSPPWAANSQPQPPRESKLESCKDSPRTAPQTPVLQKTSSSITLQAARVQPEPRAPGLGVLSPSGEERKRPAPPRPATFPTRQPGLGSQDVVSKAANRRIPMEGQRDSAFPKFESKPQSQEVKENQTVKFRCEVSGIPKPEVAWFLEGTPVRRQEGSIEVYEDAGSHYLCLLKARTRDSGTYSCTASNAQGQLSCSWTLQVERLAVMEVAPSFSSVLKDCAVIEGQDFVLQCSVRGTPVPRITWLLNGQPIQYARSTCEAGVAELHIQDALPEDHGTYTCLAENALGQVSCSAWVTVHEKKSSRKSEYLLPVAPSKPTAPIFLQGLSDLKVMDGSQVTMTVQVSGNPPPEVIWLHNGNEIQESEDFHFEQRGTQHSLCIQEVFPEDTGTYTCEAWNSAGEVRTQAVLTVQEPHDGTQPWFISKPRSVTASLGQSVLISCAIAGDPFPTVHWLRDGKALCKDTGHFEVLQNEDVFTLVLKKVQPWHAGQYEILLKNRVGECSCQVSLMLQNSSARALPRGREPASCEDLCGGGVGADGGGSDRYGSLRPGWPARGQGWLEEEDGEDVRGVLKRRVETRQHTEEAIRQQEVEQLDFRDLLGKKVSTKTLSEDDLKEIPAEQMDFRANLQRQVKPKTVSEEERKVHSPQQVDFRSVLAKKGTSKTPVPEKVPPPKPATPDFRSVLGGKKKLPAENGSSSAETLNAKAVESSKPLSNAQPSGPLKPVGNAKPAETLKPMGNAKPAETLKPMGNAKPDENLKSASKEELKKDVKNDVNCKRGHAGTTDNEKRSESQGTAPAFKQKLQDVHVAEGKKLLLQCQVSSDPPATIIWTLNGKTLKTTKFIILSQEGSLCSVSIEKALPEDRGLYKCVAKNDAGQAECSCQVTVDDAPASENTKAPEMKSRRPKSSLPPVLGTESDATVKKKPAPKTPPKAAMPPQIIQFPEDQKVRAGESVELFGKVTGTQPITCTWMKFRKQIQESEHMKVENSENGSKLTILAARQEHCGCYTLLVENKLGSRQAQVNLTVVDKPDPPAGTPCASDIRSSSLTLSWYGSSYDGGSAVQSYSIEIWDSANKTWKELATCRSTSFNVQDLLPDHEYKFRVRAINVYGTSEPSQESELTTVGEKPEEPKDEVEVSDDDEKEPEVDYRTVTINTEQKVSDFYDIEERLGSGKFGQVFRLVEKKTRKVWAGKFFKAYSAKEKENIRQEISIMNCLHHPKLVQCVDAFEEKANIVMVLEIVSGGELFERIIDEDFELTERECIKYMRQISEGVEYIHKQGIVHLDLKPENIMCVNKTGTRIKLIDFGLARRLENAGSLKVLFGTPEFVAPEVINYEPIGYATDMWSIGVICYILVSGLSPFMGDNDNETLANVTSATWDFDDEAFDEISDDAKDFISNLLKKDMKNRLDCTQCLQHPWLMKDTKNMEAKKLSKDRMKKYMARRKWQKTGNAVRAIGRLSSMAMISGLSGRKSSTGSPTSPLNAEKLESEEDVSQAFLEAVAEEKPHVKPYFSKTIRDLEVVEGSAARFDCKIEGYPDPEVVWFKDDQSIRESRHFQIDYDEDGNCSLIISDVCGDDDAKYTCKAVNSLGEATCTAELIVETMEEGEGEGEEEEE
Chain of Receptor-type tyrosine-protein kinase FLT3 (Homo sapiens) (P36888 whole entry): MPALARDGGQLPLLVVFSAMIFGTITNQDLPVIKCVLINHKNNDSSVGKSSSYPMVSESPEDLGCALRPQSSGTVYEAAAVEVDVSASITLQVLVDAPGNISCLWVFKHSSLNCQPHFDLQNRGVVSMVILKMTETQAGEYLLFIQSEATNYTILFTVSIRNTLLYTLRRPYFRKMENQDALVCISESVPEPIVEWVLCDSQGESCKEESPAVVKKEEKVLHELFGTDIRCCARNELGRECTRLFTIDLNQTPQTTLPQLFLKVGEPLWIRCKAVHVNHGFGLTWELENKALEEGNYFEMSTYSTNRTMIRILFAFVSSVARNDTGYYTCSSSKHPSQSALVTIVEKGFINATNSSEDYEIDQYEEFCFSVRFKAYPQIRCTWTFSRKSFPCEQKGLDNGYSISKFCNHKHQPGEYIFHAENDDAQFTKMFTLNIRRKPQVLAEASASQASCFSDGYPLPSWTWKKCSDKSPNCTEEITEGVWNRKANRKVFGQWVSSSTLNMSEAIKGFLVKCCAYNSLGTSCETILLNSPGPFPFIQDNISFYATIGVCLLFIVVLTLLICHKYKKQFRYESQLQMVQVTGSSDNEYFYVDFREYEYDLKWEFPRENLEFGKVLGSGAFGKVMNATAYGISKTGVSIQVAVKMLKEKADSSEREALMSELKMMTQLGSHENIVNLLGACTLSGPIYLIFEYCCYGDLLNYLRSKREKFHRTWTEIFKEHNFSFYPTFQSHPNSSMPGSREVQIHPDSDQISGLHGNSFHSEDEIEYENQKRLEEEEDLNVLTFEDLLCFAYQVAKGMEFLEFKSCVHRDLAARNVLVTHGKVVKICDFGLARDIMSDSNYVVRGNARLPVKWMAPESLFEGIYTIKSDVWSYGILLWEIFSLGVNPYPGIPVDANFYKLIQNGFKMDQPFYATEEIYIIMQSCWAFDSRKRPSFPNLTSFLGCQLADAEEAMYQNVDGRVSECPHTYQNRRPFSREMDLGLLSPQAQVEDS

In the case of `COc1cc2nc(C)nc(N[C@H](C)c3cccc(-c4cn[nH]c4)c3)c2cc1OC`, the Activity in assay [1] was found to be 61%; in assay [2], 78%; in assay [3], 78%; in assay [4], 61%; in assay [5], 98%; in assay [6] it was 87%. The Activity in assay [7] was found to be 100%.
For the molecule `COc1cc2ncnc(N[C@H](C)c3cccc4ccccc34)c2cc1OC`, the Activity turned out to be 100% in assay [1]; 95% in assay [2]; 93% in assay [3]; 100% in assay [4]; 91% in assay [5]; 83% in assay [6]. The Activity in assay [7] came out at 100%.
